# US6201025A, “N-aralkylaminotetralins as ligands for the neuropeptide Y Y5 receptor” (Ortho-McNeil Pharmaceutical, Inc., priority 1999, dated 2001)
# Where a name gives a salt, the structure may show the parent alone. Read-outs that look alike come from different tables or passages of the source.
# Target: T1, human neuropeptide Y5 receptor (Homo sapiens, UniProt Q15761)
# T1 construct: expressed in transfected cells; cell membranes
# T1 sequence (Q15761 1-445): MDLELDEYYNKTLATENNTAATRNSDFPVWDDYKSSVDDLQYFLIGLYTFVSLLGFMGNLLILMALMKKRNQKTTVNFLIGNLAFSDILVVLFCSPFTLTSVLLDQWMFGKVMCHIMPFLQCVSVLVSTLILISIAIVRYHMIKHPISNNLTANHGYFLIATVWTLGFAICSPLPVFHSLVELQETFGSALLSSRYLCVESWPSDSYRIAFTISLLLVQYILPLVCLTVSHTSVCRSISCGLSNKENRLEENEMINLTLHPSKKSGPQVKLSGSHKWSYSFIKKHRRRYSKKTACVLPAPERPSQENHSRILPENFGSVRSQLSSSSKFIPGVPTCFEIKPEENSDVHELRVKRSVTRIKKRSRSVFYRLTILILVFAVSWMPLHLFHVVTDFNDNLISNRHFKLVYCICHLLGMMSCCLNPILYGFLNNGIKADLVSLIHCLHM
# Assay: NPY5 HTS Centrifugation Assay: competition of 125I-PYY binding to membranes of NPY5-transfected HEK293 cells
# Details: for inhibition at 3 µM: read-out: % Inhibition of 125I-PYY Binding @ 3 uM; for inhibition at 30 µM: read-out: % Inhibition of 125I-PYY Binding @ 30 uM
# Experimental: The compounds described in this invention were evaluated for binding to the human neuropeptide Y5 receptor.
# Stably transfected cells served as the source for the membranes for the NPY5 receptor binding assay.
# NPY5-transfected HEK293 cells were grown to confluence in 150 cm^2 culture dishes. […] Cells were then incubated in phosphate-buffered saline without Calcium and without Magnesium, supplemented with 2 mM EDTA. Cells were incubated for 10 minutes at room temperature and the cells were collected by repetitive pipeting. Cells were formed into pellets and then frozen at -80° C. until needed. Frozen pellets were homogenized with a polytron at full speed for 12 seconds in a homogenization buffer (20 mM Tris HCl, 5 mM EDTA, pH 7.4). Homogenates were centrifuged for 5 minutes at 4° C. at 200 g. Supernatants were transferred to corex tubes and centrifuged for 25 minutes at 28,000 g. Pellets were re-suspended in Binding (20 mM HEPES, 10 mM NaCl, 0.22 mM KH2 PO4, 1.3 mM CaCl2, 0.8 mM MgSO4, pH 7.4). Membranes were kept on ice until use.
# Compounds to be tested were prepared as 10x stocks in binding buffer and added first to assay tubes (RIA vials, Sarstedt). […] To each tube is added 100 μL of membranes and the mixture is agitated by pipeting 2 times. Samples are incubated for 1 hr at room temperature. Aluminum cast plates (Sarstedt) containing the vials are then centrifuged 10 minutes at 3200 rpm in a Sorvall RT6000. Supernatant is then aspirated. To each vial 400 μL PBS is added and this is then aspirated again. Vials are then put in carrier polypropylene 12×75 tube and counted in gamma counter (Packard). Non-specific binding is determined in the presence of 300 nM NPY.
# [1] = 3 uM, 80 pM 125I-PYY, human NPY Y5 receptor, 1 hr room temperature
# [2] = 30 uM, 80 pM 125I-PYY, human NPY Y5 receptor, 1 hr room temperature
SMILES,inhibition at 3 µM [1] [%],inhibition at 30 µM [2] [%],inhibition at 3 µM [%],inhibition at 30 µM [%]
"COc1ccc2c(c1)CC[C@H](NCCc1ccc(OC)c(OC)c1)[C@@H]2Cc1ccccc1 (racemic) [Compound 6, rac-cis-1-(Phenylmethyl)-6-methoxy-N-(2-(3,4-dimethoxyphenyl)ethyl)-1,2,3,4-tetrahydro-2-naphthalenamine]",86,101,–,–
"Fc1ccc(CN[C@H]2CCc3ccccc3[C@H]2Cc2ccccc2)cc1 (racemic) [Compound 9, rac-cis-1-(Phenylmethyl)-N-(4-fluorophenylmethyl)-1,2,3,4-tetrahydro-2-naphthalenamine monohydrobromide]",20,97,–,–
"COc1ccccc1CN[C@H]1CCc2ccccc2[C@H]1Cc1ccccc1 (racemic) [Compound 11, rac-cis-1-(Phenylmethyl)-N-(2-methoxyphenylmethyl)-1,2,3,4-tetrahydro-2-naphthalenamine]",21,96,–,–
"COc1ccccc1CN[C@H]1CCc2ccccc2[C@H]1Cc1ccc(F)cc1 (racemic) [Compound 12, rac-cis-1-(4-Fluorophenylmethyl)-N-(2-methoxyphenylmethyl)-1,2,3,4-tetrahydro-2-naphthalenamine monohydrobromide]",16,98,–,–
"COc1ccccc1CN[C@@H]1CCc2ccccc2[C@H]1Cc1ccc(F)cc1 (racemic) [Compound 13, rac-trans-1-(4-Fluorophenylmethyl)-N-(2-methoxyphenylmethyl)-1,2,3,4-tetrahydro-2-naphthalenamine monooxalate]",–,–,16,89
"COc1ccc2c(c1)[C@@H](Cc1ccccc1)[C@@H](NCc1ccccc1OC)CC2 (racemic) [Compound 15, rac-cis-1-(Phenylmethyl)-7-methoxy-N-(2-methoxyphenylmethyl)-1,2,3,4-tetrahydro-2-naphthalenamine monohydrobromide]",31,–,–,–
"Fc1ccc(C[C@@H]2c3ccccc3CC[C@H]2NCCc2c[nH]c3ccccc23)cc1 (racemic) [Compound 16, rac-trans-1-(4-Fluorophenylmethyl)-N-(2-(3-indolyl)ethyl)-1,2,3,4-tetrahydro-2-naphthalenamine monooxalate]",–,–,48,101
"COc1ccc2c(c1)[C@@H](Cc1ccccc1)[C@H](NCCc1c[nH]c3ccccc13)CC2 (racemic) [Compound 19, rac-trans-1-(Phenylmethyl)-7-methoxy-N-(2(3-indolyl)ethyl)-1,2,3,4-tetrahydro-2-naphthalenamine monooxalate]",–,–,49,–
"c1ccc2c(c1)CC[C@@H](NCCc1c[nH]c3ccccc13)[C@@H]2Cc1ccc2ccccc2c1 (racemic) [Compound 21, rac-trans-1-(2-Naphthylmethyl)-N-(2-(3-indolyl)ethyl)-1,2,3,4-tetrahydro-2-naphthalenamine monooxalate]",–,–,33,103
"COc1ccccc1CN[C@H]1CCc2ccccc2[C@H]1Cc1ccc2ccccc2c1 (racemic) [Compound 22, rac-cis-1-(2-Naphthylmethyl)-N-(2-methoxyphenylmethyl)-1,2,3,4-tetrahydro-2-naphthalenamine monohydrobromide]",15,96,–,–
"Fc1ccc(C[C@@H]2c3ccccc3CC[C@@H]2NCCCc2ccccc2)cc1 (racemic) [Compound 24, rac-cis-1-(4-Fluorophenylmethyl)-N-(3-phenylpropyl)-1,2,3,4-tetrahydro-2-naphthalenamine monohydrobromide]",19,102,–,–
c1ccc(C[C@H]2c3ccccc3CC[C@H]2NCCc2c[nH]c3ccccc23)cc1 (relative stereo) [Compound 8],73,105,–,–
"Fc1ccc(CCN[C@@H]2CCc3ccccc3[C@@H]2Cc2ccccc2)cc1 (relative stereo) [Compound 14, monohydrobromide]",13,98,–,–
